Data: patent US8680282B2, “Cyclic inhibitors of carnitine palmitoyltransferase and treating cancer” (University Health Network, priority 2007, dated 2014)

Tests used:
human CPT1A = molecular target: T1, human CPT1A (Homo sapiens, UniProt P50416); assay: Human CPT1A LC/MS assay; type: biochemical; details: human CPT1A LC/MS assay, dose response format
T1 construct: made in house; host or cells: Saccharomyces cerevisiae (pESC-trp) or cultured mammalian cells (pCDNA3.1); mitochondrial extract
T1 sequence (P50416 1-773): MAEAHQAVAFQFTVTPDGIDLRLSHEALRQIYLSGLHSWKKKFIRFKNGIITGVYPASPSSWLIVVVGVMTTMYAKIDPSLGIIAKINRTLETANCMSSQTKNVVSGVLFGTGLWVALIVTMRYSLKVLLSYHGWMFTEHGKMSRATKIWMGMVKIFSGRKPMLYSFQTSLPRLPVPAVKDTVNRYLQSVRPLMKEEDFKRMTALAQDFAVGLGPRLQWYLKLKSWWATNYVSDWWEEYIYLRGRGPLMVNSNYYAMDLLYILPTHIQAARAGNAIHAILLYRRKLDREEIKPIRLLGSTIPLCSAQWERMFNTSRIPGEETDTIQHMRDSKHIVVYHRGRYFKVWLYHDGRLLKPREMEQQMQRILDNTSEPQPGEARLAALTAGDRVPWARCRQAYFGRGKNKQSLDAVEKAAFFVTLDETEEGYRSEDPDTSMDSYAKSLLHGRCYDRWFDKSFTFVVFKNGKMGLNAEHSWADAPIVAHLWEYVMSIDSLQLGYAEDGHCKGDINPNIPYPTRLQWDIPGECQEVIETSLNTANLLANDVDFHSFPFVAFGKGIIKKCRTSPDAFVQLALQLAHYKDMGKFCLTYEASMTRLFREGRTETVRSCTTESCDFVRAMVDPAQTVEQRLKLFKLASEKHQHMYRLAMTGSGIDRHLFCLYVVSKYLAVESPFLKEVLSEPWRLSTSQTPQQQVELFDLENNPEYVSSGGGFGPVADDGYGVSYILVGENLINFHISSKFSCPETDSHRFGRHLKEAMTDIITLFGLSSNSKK
Text: Nucleotide sequences encoding human CPT1 enzymes were individually cloned into the yeast expression vector pESC-trp at the Cla1 (5′ terminus) and Pac1 (3′ terminus) restriction sites by PCR amplification of the open reading frame using oligonucleotide primers designed to encode the wild-type CPT1 protein sequence. Standard molecular biology techniques were used to transform and express the CPT1 proteins in the yeast Saccharomyces cerevisiae. The yeast cells were lysed by enzymatic degradation of the cell wall by Zymolase, and the mitochondria were isolated by standard biochemical techniques. The integrity of the isolated mitochondria was monitored by determining the activity of succinate dehydrogenase in the mitochondrial preparations. The mitochondrial extracts were stored at −80° C. in buffer containing 10 mM HEPES pH 7.4 and 250 mM sucrose.
Human CPT1 (A, B, C) genes were additionally cloned into the pCDNA3.1 vector individually for expression in cultured mammalian cells. Cells expressing the exogenous CPT1A were identified and grown under standard conditions. Mammalian cells were harvested, and mitochondrial extracts prepared using standard biochemical methods. The mitochondrial extracts were stored at −80° C. in buffer containing 10 mM HEPES pH 7.4 and 250 mM sucrose.
Assays were performed in 96-well plate format. Each 100 μL reaction contained 40 mM KCl, 50 mM TrisHCl pH 7.5, and 250 mM mannitol (Assay Buffer), and 1.6 μg protein of an extract, 20 μM palmitoyl-CoA, 50 μM L-carnitine, and 10 ug/mL BSA. Reactions were incubated at room temperature and stopped after 10 minutes by extraction with 200 μL of water saturated n-butanol containing myristoyl carnitine (500 nM) as an internal standard. The samples were thoroughly mixed, and the phases separated by centrifugation. Samples were prepared for analysis with a 10 fold dilution of the n-butanol phase containing the reaction product palmitoyl carnitine into a 50:50 (acetonitrile:water) solvent for analysis. 5 μL of prepared sample was separated on a Phenomenex Jupiter 5μ C4 reverse-phase column using an Agilent 1100 HPLC with a gradient from 50% acetonitrile (0.5% acetic acid) to 100% acetonitrile and quantified by detection with a Bruker Esquire 3000plus mass spectrometer. The abundance of the palmitoyl carnitine product was determined relative to the internal standard and the actual quantity of palmitoyl carnitine can be determined from a standard curve prepared using the n-butanol solution containing the internal standard.
Compounds were evaluated in two formats, a screening format, and a dose response format. The screening format was performed by adding 25 μL compound in 20% DMSO and Assay Buffer to 25 μL of extract containing […] and Assay Buffer, followed by a 10 minute incubation at room temperature. 50 μL of 40 μM palmitoyl-CoA in Assay Buffer was added to the reaction mixture, mixed and incubated for 10 minutes at room temperature. A negative control for activity was also performed where the carnitine was omitted from the reaction. A positive control for activity was also performed by omitting compound from the solution containing 20% DMSO and Assay Buffer. The reaction mixture was extracted and analyzed as described above. The inhibition by compound was determined by comparing the control relative activity to the relative activity observed in wells containing the compound. Relative activity was determined by subtracting the relative intensity (area palmitoyl carnitine/area myristoyl carnitine) observed in the negative control from the relative intensity observed in the experimental well, and dividing by the relative activity observed in the positive control.
[formula] Compound characterization by dose response format was performed using the above described assay conditions and a 16 point compound titration in 2 fold compound dilution steps. The DMSO concentration was kept constant at 20% (v/v) for all compound concentrations.

[1] = tested on: cancer cell lines from breast, lung, colon, brain, prostate and ovarian cancer; assay: Cancer cell growth inhibition, SRB assay, cell line panel; type: cell-based, human; details: cell lines of Tables 2 and 3; for S11: at 10 μM, all lines other than MDA-231, A549, H460, HCT-8
Procedure: Human cancer cells (MCF-7, H358, H460, HCT116 p53^+/+, HCT116 p53^−/−, A172, PC-3, DU-145 and SW626) were maintained in DMEM medium containing 10% Fetal Bovine Serum (FBS) (Invitrogen, Burlington, ON, Canada) and normal cells HMEC, 184A1, NHBE and PrEC were cultured in MEGM, MEGM plus transferring and cholera toxin, BEGM and PrEGM supplemented with various growth factors (Cambrex, Charles city, Iowa, USA), respectively.
Compounds of Examples S1 to S30, and 4-(carboxymethyl)-4-(6-(3-hexyloxy)phenoxy)hexanoamido)-1,1-dimethylpiperidinium 2,2,2-trifluoroactate (“Compound A”) were tested in this example. Each of the tested compounds was dissolved in DMSO and further diluted in cell culture medium for the experiments performed. […] Cell viability was assessed by Sulforhodamine B (SRB) assay at Day 6.
Sulforhodamine B (SRB) (Sigma, Oakville, ON, Canada) is a water-soluble dye that binds to the basic amino acids of the cellular proteins. […] Absorbance was read at 570 nm on a spectrophotometer. […] Growth inhibition (%) was determined as percentage of cells remaining compared to the DMSO-treated cells as control.
All of the compounds shown in Tables 2 and 3 had activity against at least one cell line (“NT” means not tested; and “NE” means no activity at 10 micromolar—activity at higher concentrations was not measured).

CCCCCc1ccc(S(=O)(=O)NC2(CC(=O)O)CCCN(C)C2)cc1 (centres unmarked) [Example S11, 3-(carboxymethyl)-1-methyl-3-(4-pentylphenylsulfonamido)piperidinium 2,2,2-trifluoroacetate]
IC50 (human CPT1A): 1 to 10 µM
activity against cancer cell lines [1]: did not exihibit activity at 10 μM
